Assay results as given in publication PMC7038234, “Screening of Natural Extracts for Inhibitors against Japanese Encephalitis Virus Infection” (Antimicrobial Agents and Chemotherapy, 2020).
Like-named read-outs stand apart in the source and are kept apart here.

What was measured:
[1] = Cytotoxicity / cell viability on Vero cells; details: African green monkey
[2] = tested on: JEV strains AT31 and SA14; experiment: Plaque assay of virus production in culture supernatants (Vero, Huh-7, U251 cells); type: cell-based, Japanese encephalitis virus
JEV strain SA14 [3] = experiment: qRT-PCR of JEV RNA levels in Vero cell lysates; type: cell-based, Japanese encephalitis virus; details: Vero cells, high-, middle- and low-dose-treated groups
JEV (AT31) = experiment: Antiviral efficacy in JEV-infected BALB/c mice; type: in vivo, BALB/c mouse
Experimental: Adult male BALB/c mice (4 weeks) were randomly divided into three groups: the JEV-infected and vehicle (0.75% DMSO in normal saline)-treated group, the JEV-infected and ouabain-treated group, and the ouabain-treated group. For infection, mice were infected intraperitoneally (i.p.) with a dose of 1 × 10^6 PFU JEV (AT31). The infected mice were i.p. administered with ouabain at 3 mg/kg of body weight or a vehicle control every day for 21 consecutive days. Mice were sacrificed at day 1, 3, 7, 10, or 21, depending on the experimental design. Blood, spleen, and brain samples were collected for plaque assay, qRT-PCR, and histopathology investigation (Vectra ss; PerkinElmer).
The viral burden was determined by plaque assay. The samples were weighed and homogenized in 300 μl of PBS. The homogenates were clarified by centrifugation (2,000 × g at 4°C) for 15 min and then diluted serially prior to infection of BHK-21 cells. The viral titer was adjusted for sample volume and tissue weight to calculate the titer as PFU/g.
Tissue samples and blood from JEV-infected mice were extracted with the RNAprep pure tissue kit (Tiangen; catalog no. DP431) and RNAprep pure blood kit (Tiangen; catalog no. DP433), respectively. JEV RNA levels were determined by one-step qRT-PCR on ABI Real-Time PCR systems using standard cycling conditions. The viral burden was calculated on a standard curve produced using serial 10-fold dilutions of plasmids carrying the infectious clone.
For histopathology investigation, brain tissues were collected from the mice and fixed in 4% paraformaldehyde; the hematoxylin-eosin staining protocol was followed for tissue staining.

JEV [4] = type: cell-based, Japanese encephalitis virus
JEV AT31 = experiment: Addition of sodium and potassium assay (plaque assay); details: Vero cells, AT31, NaCl 0-100 mM, KCl 0-25 mM
JEV SA14 replicon = experiment: JEV reporter replicon assay (Renilla luciferase) in Huh-7 cells; details: for JEV RNA synthesis (replicon luciferase signal): 24 h postelectroporation
JEV strain SA14 [5] = experiment: Immunofluorescence staining assay (IFA), SA14 infection of Vero cells
JEV [6] = details: cited from earlier work
[7] = JEV-infected BALB/c mice, ouabain 3 mg/kg i.p. daily, 21 days

COc1cc2c(c(OC)c1OC)-c1c(cc3c(c1OC)OCO3)CC(C)C(C)C2 (centres unmarked) [schizandrin B]
CC50 [1]: > 100 µM

COC1=CC23CCCN2CCc2cc4c(cc2C3C1O)OCO4 (centres unmarked) [cephalotaxlen]
CC50 [1]: > 100 µM

C[C@@H]1O[C@@H](O[C@H]2C[C@@H](O)[C@]3(CO)[C@H]4[C@H](O)C[C@]5(C)[C@@H](C6=CC(=O)OC6)CC[C@]5(O)[C@@H]4CC[C@]3(O)C2)[C@H](O)[C@H](O)[C@H]1O [ouabain]
reduction of AT31 and SA14 virus production [2]: 4 to 6 log units | attenuated RNA levels of the SA14 strain (JEV strain SA14 [3]): above 40% | animals survived (JEV (AT31); [7]): 8 out of 14 | survival rate (JEV (AT31); [7]): ~60% | histopathological changes in brain (JEV (AT31); day 7 postinfection, meningitis, perivascular cuffing, vacuolar degeneration): remarkably alleviated | plaques from brain on day 21 postinfection (JEV (AT31); day 21 postinfection, plaque assay): no plaques formed | viral load in brain (plaque assay) (JEV (AT31); days 7, 10 and 21 postinfection, versus untreated infected mice): significantly reduced viral load | effect on viral titers in the brain at the preclinical stage (JEV (AT31); qRT-PCR, days 1 and 3 postinfection): little effect | effect on decreasing viral titers in the blood and spleen (JEV (AT31); qRT-PCR, earlier time points (days 1 and 3)): little effect | behavior of mice treated with ouabain alone (JEV (AT31); uninfected BALB/c mice, ouabain 3 mg/kg i.p. daily): little abnormal behavior | adaptive (drug-resistant) mutant (JEV [4]): no adaptive mutant was found | CC50 [1]: > 100 µM | dependence of JEV-inhibiting effect on extracellular NaCl and KCl (JEV AT31): positively correlated with extracellular NaCl but inversely correlated with KCl | initial translation of replicon RNA (JEV SA14 replicon): neither drug inhibited | JEV RNA synthesis (replicon luciferase signal) (JEV SA14 replicon): inhibited JEV RNA synthesis in a dose-dependent manner | SA14 reproduction (JEV strain SA14 [5]; ouabain 98 nM): greatly inhibited

Oc1cc(O)c2c(c1)OC(c1ccc(O)c(O)c1)C(OC1(c3ccc(O)c(O)c3)Oc3cc(O)cc(O)c3C(O)C1O)C2 (centres unmarked) [procyanidin]
CC50 [1]: > 100 µM

O[C@H]1[C@H]2c3cc4c(cc3CN3CCC(=C[C@@H]1O)[C@H]23)OCO4 [lycorine]
CC50 [1]: > 100 µM

COc1cc2c(c(OC)c1OC)-c1c(cc(OC)c(OC)c1OC)C[C@H](C)[C@H](C)C2 [schizandrin A]
CC50 [1]: 100 µM

CCCCCCN(CCCCCC)C(=O)Cc1c(-c2ccc(F)cc2)[nH]c2ccccc12 [FGIN-1-27]
JEV infection (JEV [6]): reduced the JEV infection in vitro

Cc1cc(O)c2c(c1)C(=O)c1cc(O)cc(O)c1C2=O [emodin]
CC50 [1]: > 100 µM

COC(=O)C1=C(C)NC(C)=C(C(=O)OCCN2CCN(C(c3ccccc3)c3ccccc3)CC2)C1c1cccc([N+](=O)[O-])c1 (centres unmarked) [manidipine]
JEV infection (JEV [6]): inhibited JEV infection in vitro and in vivo

C[C@H]1O[C@@H](O[C@H]2[C@@H](O)C[C@H](O[C@H]3[C@@H](O)C[C@H](O[C@H]4CC[C@@]5(C)[C@H](CC[C@@H]6[C@@H]5C[C@@H](O)[C@]5(C)[C@@H](C7=CC(=O)OC7)CC[C@]65O)C4)O[C@@H]3C)O[C@@H]2C)C[C@H](O)[C@@H]1O [digoxin]
reduction of AT31 and SA14 virus production ([2]; Vero cells, plaque assay, highest concentration): 4 to 6 log units | attenuated RNA levels of the SA14 strain (JEV strain SA14 [3]): above 40% | adaptive (drug-resistant) mutant (JEV [4]): no adaptive mutant was found | CC50 [1]: > 100 µM | dependence of JEV-inhibiting effect on extracellular NaCl and KCl (JEV AT31): positively correlated with extracellular NaCl but inversely correlated with KCl | initial translation of replicon RNA (JEV SA14 replicon): neither drug inhibited | JEV RNA synthesis (replicon luciferase signal) (JEV SA14 replicon): inhibited JEV RNA synthesis in a dose-dependent manner | SA14 reproduction (JEV strain SA14 [5]; digoxin 392 nM): greatly inhibited
